Like-named read-outs stand apart in the source and are kept apart here.

The target in data set [1] is T1, Aryl hydrocarbon receptor (Rattus norvegicus, UniProt P41738).
T1 sequence (P41738 10-853): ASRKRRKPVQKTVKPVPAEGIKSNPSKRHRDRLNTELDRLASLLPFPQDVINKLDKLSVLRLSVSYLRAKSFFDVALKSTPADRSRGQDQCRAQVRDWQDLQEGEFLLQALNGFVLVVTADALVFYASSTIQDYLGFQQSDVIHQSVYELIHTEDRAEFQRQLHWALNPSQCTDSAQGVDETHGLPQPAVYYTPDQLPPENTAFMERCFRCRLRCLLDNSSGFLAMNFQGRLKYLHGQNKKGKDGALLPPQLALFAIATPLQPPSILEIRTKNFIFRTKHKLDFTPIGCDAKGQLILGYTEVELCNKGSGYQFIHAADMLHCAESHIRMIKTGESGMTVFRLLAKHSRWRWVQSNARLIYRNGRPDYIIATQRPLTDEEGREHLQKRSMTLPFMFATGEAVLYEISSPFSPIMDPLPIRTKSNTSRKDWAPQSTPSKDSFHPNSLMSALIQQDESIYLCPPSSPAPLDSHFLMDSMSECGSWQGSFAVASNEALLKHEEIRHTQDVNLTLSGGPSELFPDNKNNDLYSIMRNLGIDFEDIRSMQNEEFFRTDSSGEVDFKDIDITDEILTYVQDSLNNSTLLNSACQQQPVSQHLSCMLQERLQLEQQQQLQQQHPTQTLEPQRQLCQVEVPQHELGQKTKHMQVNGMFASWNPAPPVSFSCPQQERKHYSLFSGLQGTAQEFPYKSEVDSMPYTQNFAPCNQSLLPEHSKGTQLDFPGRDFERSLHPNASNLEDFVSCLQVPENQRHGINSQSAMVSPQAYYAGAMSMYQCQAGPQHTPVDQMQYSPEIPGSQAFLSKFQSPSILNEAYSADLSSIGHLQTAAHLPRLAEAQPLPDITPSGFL
The settings on record: for EC10, linear / logEC10 / EC10, linear transformed: Bioassay AhR, dosing range all; for EC10, linear: linear model fit; for logEC10: log-logistic model fit; for SR-ScoreAhR: SR-Score, sigma k=1, x=5; for Specificity ratio (SRbaseline) SRAhR: against baseline cytotoxicity; for EC10, AhR: effect; for log(1/EC10) AhR: input of the ToxPi score, values up to 1.00. The source says: (§1) All bioassay media components and the ERα-UAS-bla GripTite and PPARγ-UAS-bla cells were obtained from Thermo Fisher Scientific (Waltham, MA, USA). AREc32 reporter gene cells based on MCF7 were provided by C. Roland Wolf (Cancer Research UK); AhR CALUX cells (H4L7.5c2 derived from H4IIe) were provided by Michael Denison (UC Davis, USA); and SH-SY5Y cells were purchased from Sigma-Aldrich.
(§2) Cell culture conditions and bioassay protocols including response detection are provided in Text S2.1–2.4 and Table S3. − Cell viability was determined from cell confluency using an IncuCyte S3 Live-Cell Analysis System (Sartorius AG, Essen, Germany) before and after exposure, except for SH-SY5Y cells (live–dead staining with Nuclear Green LcS1 and propidium iodide, Abcam, UK). For metabolic activation experiments, cell viability was assessed using the ToxBLAzer DualScreen Kit (Thermo Fisher Scientific) to capture the remaining toxicity in ERα-UAS-bla GripTite after treatment with the aCYP catalyst (details in Text S2.4).
(§3) For ARE, the concentration that triggered an induction ratio of 1.5 (ECIR1.5) was used as the benchmark value, as detailed in Text S2.5. IC10 values also served as a threshold for data analysis in all assays; only concentrations below IC10 were considered when deriving EC10 or ECIR1.5. […]
(§4) S2: Cell culture and bioassays
(§5) S2.1: Cell Culturing Conditions
(§6) All suppliers and sources are given in detail in SI-Excel S3. The bioassay media for the different assays were prepared as follows: Assay medium for ER alpha-UAS-bla GripTite (ERα) and PPAR gamma-UAS-bla 293H (PPARγ) was prepared with 98% Opti-MEM, supplemented with 2% charcoal-stripped FBS, and 100 U/mL penicillin-streptomycin. MitoOxTox and AhR assay medium was comprised of 90% DMEM with GlutaMAX, supplemented with 10% FBS, and 100 U/mL penicillin-streptomycin. Neurotoxicity assay medium consisted of the neurobasal […]
(§7) (1 picture or pasted object on this page, not shown here) […]
(§8) medium, supplemented with 2% B-27 Supplement and 2 mM GlutaMAX Supplement. SH - SY5Y cells were differentiated with 10 µM all-trans retinoic acid prior to the assay.
(§9) S2.2: Cell Seeding and Incubation. For all bioassays, cell suspensions in the respective assay medium were dispensed into each well of 384-well plates using a MultiFlo Dispenser (Biotek, (now Agilent), Winooski, VT, U.S.). After seeding, the plates were incubated at 37° C and 5% CO₂ for […]. The final cell densities and plate types were as follows: Black poly-D-lysine coated 384-well plates (Product No. 354663, Corning Inc., NYC, U.S.) were used for PPARγ:
(§10) 6500 cells/well, ERα: 5000 cells/well. White 384-well plates with a clear bottom (Product No.
(§11) 781098, Greiner, Kremsmünster, Austria) were utilized for the MitoOxTox assay: 2650

The test system of data set [2] is ERα-UAS-bla GripTite cells. The settings on record: for TKcytotoxicity: TKcytotoxicity-Ratio. On the procedure: as §2, with “S2.4). […]” for “S2.4).”
The TK-Ratio method was used to evaluate the impact of abiotic CYP oxidation on the potency of tested compounds. […]
For experiments with the preceding aCYP activation, ERα cell viability was additionally calculated from the readout of the ToxBLAzer reagent. The ToxBLAzer assay was conducted following the manufacturer's instructions (Thermo Fisher, Waltham, MA, U.S.).13 Fluorescence intensity was recorded at the start of the assay ( Fwavelength(0h)) and after a 2-hour incubation at […]
eq. S11 for normalization.
Cell viability = F665nm(2h, sample)-F665nm(0h, average cell-free) (S11) F665nm(2h, average unexposed)-F665nm(0h, average cell-free) […]
the specific endpoint to avoid artifacts from cytotoxicity burst. 15
S2.5: Concentration-response curves (CRCs)
To avoid bias from cytotoxicity burst at higher concentrations, all concentrations exceeding the IC10 for cytotoxicity were excluded in the CRC modeling of effects but otherwise cytotoxicity and effects were fitted with the same model equations (response stands for cytotoxicity or effect). For ERα, AhR, ARE and PPARγ preferably a linear model was fitted to the linear portion of CRC up to maximum 30% effect (eq. S12),16 but in some cases it was necessary to choose a sigmoidal log-concentration-response model, specifically a log-logistic model (eq. S13), to derive effect concentrations and cytotoxicity. […]
This was done using the
AutomatedBioassayScreening19 published by Braun et al.,20 which also included an algorithm to choose the best model between eq. S12 and eq. S13.
Response (%) = slope × C (S12) […]
logEC =logEC − 1 ∙log (max−min − 100%) (S14)

For data set [3], the system named is Antioxidant response element. In words: MitoOxTox: oxidative stress response in AREc32. The settings on record: for EC10, linear / logEC10: Bioassay ARE, dosing range all; for EC10, linear: linear model fit; for logEC10: log-logistic model fit; for Specificity ratio (SRbaseline) SRARE: against baseline cytotoxicity; for Specificity ratio (SRcytotoxicity) SRARE: against experimental cytotoxicity; for ECIR1.5, ARE: effect; for ECIR1.5, ARE / ECIR1.5, ARE (M): induction ratio 1.5; for log(1/EC10) AREc32: input of the ToxPi score, values up to 1.00; for SR (ARE): specificity ratio.
From the text: as §1, §2, §3, §4, §5, §6, §7, §8, §9, §10, §11

[4] abbreviates: Arec32, read-out: EC10, linear transformed.

Regarding `Cc1ccc(S(=O)(=O)NC(=O)Nc2ccc(Cc3ccc(NC(=O)NS(=O)(=O)c4ccc(C)cc4)cc3)cc2)cc1` [BTUM, 4,4'-Bis(p-tolylsulfonylureido)diphenylmethane], in data set [1], the “EC10, linear” value is recorded as “no effect” and the logEC10 result is on record as “no effect”. Also, the “IC10, before oxidation” value in data set [2] (Table S10, cytotoxicity from ToxBLazer data, without simultaneous cparent measurement) is recorded as “no cytotoxicity”. Besides, in data set [2] (Table S11), the TKcytotoxicity is recorded as 2.25. In addition, in data set [3], the “EC10, linear” value is “no effect” and the logEC10 result is listed as “no effect”.
Turning to `COC(=O)C(c1ccc(O)cc1)c1ccc(O)cc1` [Bz, Methyl bis(4-hydroxyphenyl)acetate], in data set [1], the “EC10, AhR (M)” value is on record as 6.20 × 10^–5 M; the “EC10, linear transformed” value is on record as 5.80E-05; the “EC10, linear” value was 6.20E-05; the logEC10 was -3.94. For the same compound, in data set [1], the SR-ScoreAhR came to 0.0375; the “Specificity ratio (SRbaseline) SRAhR” value was found to be 5.57; the “EC10, AhR” value stood at 62 µM. In data set [1] (against experimental cytotoxicity), the “Specificity ratio (SRcytotoxicity) SRAhR” value is 1.75. The “TKcytotoxicity (TK-Ratio for cytotoxicity)” value in data set [2] (IC10 before/after aCYP oxidation) is 2.48 ± 0.69. Further, the TKcytotoxicity in data set [2] (Table S10) worked out at 2.48. Moreover, in data set [3] (setting [4]), the EC10 worked out at 2200 µM. For the same compound, in data set [3], the “EC10, linear” value was “no effect” and the logEC10 result was “no effect”.
For the compound `O=C(OCc1ccccc1)c1ccc(O)cc1` [BzPB, Benzyl 4-hydroxybenzoate], in data set [1], the “EC10, linear transformed” value is recorded as 1.73E-04; the “EC10, linear” value was “no effect”; the logEC10 entry was “no effect”; the “log(1/EC10) AhR” value came out at 0.80. Moreover, the TKcytotoxicity in data set [2] (Table S10) came out at 1.10. In addition, the EC10 in data set [3] (Arec32, read-out: EC10, linear) was 32.1 µM. In data set [3] (setting [4]), the EC10 is 16.7 µM. Further, the EC10 in data set [3] (Arec32, read-out: logEC10) is 19.5 µM. For the same compound, in data set [3], the “Specificity ratio (SRbaseline) SRARE” value is listed as 1.73; the “Specificity ratio (SRcytotoxicity) SRARE” value was 4.62; the “ECIR1.5, ARE” value came to 19.4 µM; the “ECIR1.5, ARE (M)” value is on record as 1.94 × 10^–5 M. In data set [3], the “log(1/EC10) AREc32” value came out at 1.00 and the “SR (ARE)” value was less than 10.
`CC(C)Oc1ccc(S(=O)(=O)c2ccc(O)cc2)cc1` [D8, 4-((4-Isopropoxyphenyl)sulfonyl)phenol]: in data set [1], the “EC10, linear” value is recorded as “no effect”; the logEC10 result is listed as “no effect”; the “log(1/EC10) AhR” value was 0.75. Also, the TKcytotoxicity in data set [2] (Table S10) worked out at 0.94. The EC10 in data set [3] (Arec32, read-out: EC10, linear) was determined as 1080 µM. In data set [3] (setting [4]), the EC10 came to 932 µM. Further, in data set [3] (Arec32, read-out: logEC10), the EC10 was 1230 µM. In data set [3], the “Specificity ratio (SRbaseline) SRARE” value is 0.11; the “Specificity ratio (SRcytotoxicity) SRARE” value is on record as 1.77; the “ECIR1.5, ARE” value was determined as 1220 µM; the “ECIR1.5, ARE (M)” value was 1.22 × 10^–3 M. In addition, in data set [3], the “log(1/EC10) AREc32” value was found to be 0.62 and the “SR (ARE)” value was less than 10.
`Cc1ccc(S(=O)(=O)NC(=O)Nc2cccc(OS(=O)(=O)c3ccc(C)cc3)c2)cc1` [Pergafast, N-(p-toluenesulfonyl)-N'-(3-(p-toluenesulfonyloxy)phenyl)urea]: in data set [1], the “EC10, AhR (M)” value is 2.29 × 10^–5 M; the “EC10, linear transformed” value is 2.45E-05; the “EC10, linear” value is recorded as 2.29E-05; the logEC10 is -4.61. For the same compound, in data set [1], the SR-ScoreAhR amounted to 0.73; the “Specificity ratio (SRbaseline) SRAhR” value was 6.02; the “EC10, AhR” value worked out at 22.9 µM. In data set [2] (Table S10), the TKcytotoxicity is 0.45. In addition, in data set [3], the “EC10, linear” value is “no effect” and the logEC10 result is recorded as “no effect”.
Turning to `CC(C)(c1cc(Cl)c(O)c(Cl)c1)c1cc(Cl)c(O)c(Cl)c1` [TCBPA, 2,2',6,6'-Tetrachlorobisphenol A], in data set [1], the “EC10, linear transformed” value is 7.24E-05; the “EC10, linear” value came to 1.69E-04; the logEC10 entry is recorded as “no effect”; the “log(1/EC10) AhR” value was determined as 0.84. Besides, in data set [2] (Table S10), the TKcytotoxicity worked out at 0.85. The TKcytotoxicity in data set [2] (Table S11) is recorded as 0.40. Also, in data set [3], the “EC10, linear” value is listed as “no effect” and the logEC10 result was “no effect”.
Consider `Cc1cc(Cc2cc(C)c(O)c(C)c2)cc(C)c1O` [TMBPF, Bis(3,5-dimethyl-4-hydroxyphenyl)methane], for which, in data set [1], the “EC10, linear transformed” value came to 1.03E-04; the “EC10, linear” value is listed as “no effect”; the logEC10 result was “no effect”. Besides, in data set [2] (Table S10), the TKcytotoxicity turned out to be 0.35. In data set [3], the “EC10, linear” value is listed as “no effect” and the logEC10 entry is “no effect”.

(Values after article PMC12392461, “Beyond Estrogenicity: A Comparative Assessment of Bisphenol A and Its Alternatives in In Vitro Assays Questions Safety of Replacements” (Environmental Science & Technology, 2025).)
